Source: US20210023523A1, “PARALLEL ORGANIC SYNTHESIS ON PATTERNED PAPER USING A SOLVENT-REPELLING MATERIAL” (The Governors of the University of Alberta, priority 2013, published 2021)

Tests used:
MDA-MB-231-GFP cells = test: Short-term adhesion of MDA-MB-231-GFP cells to peptides synthesized on Teflon-patterned paper arrays; type: cell-based; details: for binding of cells to peptide-modified paper: confocal microscopy, FIG. 10b, 3 hours of incubation
Procedure: When immobilized on paper, 5 out of the 8 peptides synthesized supported adhesion of MDA-MB-231 breast carcinoma at levels similar to or higher than the positive control GRGDS. The other three peptides supported greater adhesion than the scrambled peptide, GGRDS.
The images represent short term adhesion of cells after 3 hours of incubation on the array.
In FIG. 14(a), a fluorescent gel scanner was used to validate adhesion of MDA-MB-231-GFP cells to phage-derived peptides on peptide-arrays. […] FIG. 14(c) illustrates digitization of the number of cells per zone from fluorescent gel scanner images of the 32 peptides. The (+) and (−) lines represent the intensity level of the positive and negative controls.
FIG. 18 illustrates a typical cell-binding experiment on a half array (40 peptides identified from two panning experiments, and 8 controls). […] FIG. 18c consists of the zones of interest for each peptide extracted from FIG. 18a, and organized by peptides. The average intensity of fluorescence for each peptide zone is then converted into a number of cells per zone through a calibration curve previously established for these cells (FIG. 18d). FIG. 18e is the resulting plot with standard deviation over the four replicates.

[1] = test system: MCF-7 breast cancer cells; test: Culture of MCF-7 cells on peptide-modified array with or without paclitaxel (Taxol); type: cell-based; details: cells cultured on a peptide that induced morphological changes; Taxol for the last 4 days of seven; without drug: spread cells forming aggregate
Description: FIG. 19 illustrates changes such as drug-resistance and morphology observed when a peptide-modified array supported culture of MCF-7 breast cancer cells for seven days and was exposed to the anti-cancer drug paclitaxel (Taxol) for the last 4 days. FIG. 19a presents confocal images of calcein-stained cells after culture in media without taxol for four peptides (including two controls) and FIG. 19b correspond to cells cultured in media with Taxol.

GGRDS (peptide identified by phage display panning on MDA-MB-231 cells) [scrambled peptide, negative control]
binding of cells to peptide-modified paper (MDA-MB-231-GFP cells): no binding
adhesion of MDA-MB-231 breast carcinoma cells to peptide immobilized on paper (MDA-MB-231-GFP cells; fluorescent gel scanner (GFP fluorescence), 3 hours of incubation on the array, known bioactive peptides, FIG. 10a): minimal binding

GRGDS (peptide identified by phage display panning on MDA-MB-231 cells)
binding of cells to peptide-modified paper (MDA-MB-231-GFP cells): binding

CC(=O)O[C@H]1C(=O)[C@@]2(C)[C@H]([C@H](OC(=O)c3ccccc3)[C@]3(O)C[C@H](OC(=O)[C@H](O)[C@@H](NC(=O)c4ccccc4)c4ccccc4)C(C)=C1C3(C)C)[C@]1(OC(C)=O)CO[C@@H]1C[C@@H]2O [Taxol, paclitaxel]
cell morphology [1]: isolated, rounded cells
